{"source": "ChEMBL document CHEMBL1201862", "about": "“PubChem BioAssay data set” (2004)", "assay_in_all_cases": "inhibition of tumour cell growth, NCI panel, 48 h", "key": {"[1]": {"system": "U-251"}, "[2]": {"system": "SK-MEL-28"}, "[3]": {"system": "SK-MEL-5"}, "[4]": {"system": "LOX IMVI"}, "[5]": {"system": "OVCAR-4"}, "[6]": {"system": "CAKI-1"}, "[7]": {"system": "HOP-92"}, "[8]": {"system": "UO-31"}, "[9]": {"system": "NCI-H226"}, "[10]": {"system": "MCF7"}, "[11]": {"system": "MDA-MB-231"}, "[12]": {"system": "IGROV-1"}, "[13]": {"system": "MOLT-4"}, "[14]": {"system": "TK-10"}, "[15]": {"system": "CCRF-CEM"}, "[16]": {"system": "HCC 2998"}, "[17]": {"system": "RPMI-8226"}, "[18]": {"system": "Hs-578T"}, "[19]": {"system": "786-0"}, "[20]": {"system": "UACC-62"}, "[21]": {"system": "SNB-19"}, "[22]": {"system": "SN12C"}, "[23]": {"system": "COLO 205"}, "[24]": {"system": "HOP-62"}, "[25]": {"system": "SK-MEL-2"}, "[26]": {"system": "A549"}, "[27]": {"system": "MDA-N"}, "[28]": {"system": "UACC-257"}, "[29]": {"system": "SW-620"}, "[30]": {"system": "A498"}, "[31]": {"system": "Malme-3M"}, "[32]": {"system": "RXF 393"}, "[33]": {"system": "KM12"}, "[34]": {"system": "OVCAR-3"}, "[35]": {"system": "SK-OV-3"}, "[36]": {"system": "MDA-MB-435"}, "[37]": {"system": "SF-268"}, "[38]": {"system": "HT-29"}, "[39]": {"system": "SNB-75"}, "[40]": {"system": "NCI/ADR-RES"}, "[41]": {"system": "K562"}, "[42]": {"system": "OVCAR-8"}, "[43]": {"system": "M14"}, "[44]": {"system": "EKVX"}, "[45]": {"system": "DU-145"}, "[46]": {"system": "HCT-15"}, "[47]": {"system": "SF-295"}, "[48]": {"system": "NCI-H23"}, "[49]": {"system": "ACHN"}, "[50]": {"system": "SF-539"}, "[51]": {"system": "OVCAR-5"}, "[52]": {"system": "SR"}, "[53]": {"system": "PC-3"}, "[54]": {"system": "HCT-116"}}, "note": "Where “and” joins values, the source holds several entries; their conditions need not be identical. Equal entries are not always repeated.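 Compound exposure: 48 hours, 5 concentrations, 96-well plates. The concentration for 50% growth inhibition is given as GI50.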 Calls of active or inactive are those of the source. No stated cut-off is given here; in the data, active = GI50 up to about 1.1 µM and inactive = higher.", "data": [{"smiles": "CC(=O)OC(C)(C)/C(C)=C/C(=O)O[C@H]1C(=O)O[C@@H]2C[C@H]3[C@H](C)C(=O)C(O[C@@H]4O[C@H](CO)[C@@H](O)[C@H](O)[C@H]4O)=C[C@]3(C)[C@H]3[C@@H](O)[C@H](O)[C@@]4(C(=O)O)OC[C@]32[C@@H]14", "note": "[Bruceoside-F]", "values": [{"measurement": "GI50", "setting": "[1]", "result": "87.3 µM (inactive)"}, {"measurement": "GI50", "setting": "[2]", "result": "79.3 µM (inactive)"}, {"measurement": "GI50", "setting": "[3]", "result": "> 10 µM (inactive)"}, {"measurement": "GI50", "setting": "[4]", "result": "81.3 µM (inactive)"}]}, {"smiles": "CC(=O)OCC1OC(n2c(=S)n(-c3ccccc3)c(=O)c3ccccc32)C(OC(C)=O)C(OC(C)=O)C1OC(C)=O", "note": "(centres undefined)", "values": [{"measurement": "GI50", "setting": "[5]", "result": "55.8 µM (inactive) and 48.1 µM (inactive)"}, {"measurement": "GI50", "setting": "[6]", "result": "91.8 µM (inactive) and 83.4 µM (inactive)"}, {"measurement": "GI50", "setting": "[7]", "result": "47.8 µM (inactive) and 33.6 µM (inactive)"}]}, {"smiles": "COc1ccc(-c2cc(-c3ccccc3)c(C#N)c(=O)n2C2OC(COC(C)=O)C(OC(C)=O)C(OC(C)=O)C2OC(C)=O)cc1", "note": "(centres undefined)", "values": [{"measurement": "GI50", "setting": "[8]", "result": "67.6 µM (inactive) and 42.4 µM (inactive)"}]}, {"smiles": "Nc1nc(N)c2ncn(-c3ccccc3)c2n1", "values": [{"measurement": "GI50", "setting": "[9]", "result": "> 100 µM (inactive)"}, {"measurement": "GI50", "setting": "[1]", "result": "> 100 µM (inactive)"}, {"measurement": "GI50", "setting": "[8]", "result": "36.9 µM (inactive)"}, {"measurement": "GI50", "setting": "[10]", "result": "69.7 µM (inactive)"}, {"measurement": "GI50", "setting": "[11]", "result": "64.9 µM (inactive)"}, {"measurement": "GI50", "setting": "[12]", "result": "47.2 µM (inactive)"}, {"measurement": "GI50", "setting": "[13]", "result": "38.7 µM (inactive)"}, {"measurement": "GI50", "setting": "[14]", "result": "54.2 µM (inactive)"}, {"measurement": "GI50", "setting": "[15]", "result": "24.9 µM (inactive)"}, {"measurement": "GI50", "setting": "[16]", "result": "56.1 µM (inactive)"}, {"measurement": "GI50", "setting": "[17]", "result": "> 100 µM (inactive)"}, {"measurement": "GI50", "setting": "[18]", "result": "71 µM (inactive)"}, {"measurement": "GI50", "setting": "[19]", "result": "> 100 µM (inactive)"}, {"measurement": "GI50", "setting": "[20]", "result": "41.5 µM (inactive)"}, {"measurement": "GI50", "setting": "[21]", "result": "> 100 µM (inactive)"}, {"measurement": "GI50", "setting": "[6]", "result": "66.2 µM (inactive)"}, {"measurement": "GI50", "setting": "[22]", "result": "93.3 µM (inactive)"}, {"measurement": "GI50", "setting": "[3]", "result": "> 100 µM (inactive)"}, {"measurement": "GI50", "setting": "[23]", "result": "> 100 µM (inactive)"}, {"measurement": "GI50", "setting": "[24]", "result": "> 100 µM (inactive)"}, {"measurement": "GI50", "setting": "[4]", "result": "> 100 µM (inactive)"}, {"measurement": "GI50", "setting": "[25]", "result": "73.3 µM (inactive)"}, {"measurement": "GI50", "setting": "[26]", "result": "43.6 µM (inactive)"}, {"measurement": "GI50", "setting": "[27]", "result": "> 100 µM (inactive)"}, {"measurement": "GI50", "setting": "[28]", "result": "> 100 µM (inactive)"}, {"measurement": "GI50", "setting": "[29]", "result": "> 100 µM (inactive)"}, {"measurement": "GI50", "setting": "[30]", "result": "60.4 µM (inactive)"}, {"measurement": "GI50", "setting": "[31]", "result": "> 100 µM (inactive)"}, {"measurement": "GI50", "setting": "[32]", "result": "44.3 µM (inactive)"}, {"measurement": "GI50", "setting": "[33]", "result": "26.4 µM (inactive)"}]}, {"smiles": "CCCC(=O)Oc1ccc2c(C)cc(=O)oc2c1OC(=O)CCC", "values": [{"measurement": "GI50", "setting": "[9]", "result": "34.8 µM (inactive)"}, {"measurement": "GI50", "setting": "[1]", "result": "57.3 µM (inactive)"}, {"measurement": "GI50", "setting": "[5]", "result": "> 100 µM (inactive)"}, {"measurement": "GI50", "setting": "[8]", "result": "60.1 µM (inactive)"}, {"measurement": "GI50", "setting": "[34]", "result": "32.4 µM (inactive)"}, {"measurement": "GI50", "setting": "[10]", "result": "55.5 µM (inactive)"}, {"measurement": "GI50", "setting": "[11]", "result": "42.6 µM (inactive)"}, {"measurement": "GI50", "setting": "[12]", "result": "45.7 µM (inactive)"}, {"measurement": "GI50", "setting": "[13]", "result": "50 µM (inactive)"}, {"measurement": "GI50", "setting": "[14]", "result": "50.4 µM (inactive)"}, {"measurement": "GI50", "setting": "[15]", "result": "13.9 µM (inactive)"}, {"measurement": "GI50", "setting": "[35]", "result": "> 100 µM (inactive)"}, {"measurement": "GI50", "setting": "[36]", "result": "59.6 µM (inactive)"}, {"measurement": "GI50", "setting": "[17]", "result": "26.4 µM (inactive)"}, {"measurement": "GI50", "setting": "[37]", "result": "46.2 µM (inactive)"}, {"measurement": "GI50", "setting": "[38]", "result": "35.5 µM (inactive)"}, {"measurement": "GI50", "setting": "[39]", "result": "40.6 µM (inactive)"}, {"measurement": "GI50", "setting": "[18]", "result": "56.6 µM (inactive)"}, {"measurement": "GI50", "setting": "[40]", "result": "33.2 µM (inactive)"}, {"measurement": "GI50", "setting": "[19]", "result": "73.3 µM (inactive)"}, {"measurement": "GI50", "setting": "[20]", "result": "60.3 µM (inactive)"}, {"measurement": "GI50", "setting": "[21]", "result": "> 100 µM (inactive)"}, {"measurement": "GI50", "setting": "[22]", "result": "76.6 µM (inactive)"}, {"measurement": "GI50", "setting": "[7]", "result": "41.3 µM (inactive)"}, {"measurement": "GI50", "setting": "[2]", "result": "54.2 µM (inactive)"}, {"measurement": "GI50", "setting": "[41]", "result": "60 µM (inactive)"}, {"measurement": "GI50", "setting": "[42]", "result": "34.8 µM (inactive)"}, {"measurement": "GI50", "setting": "[3]", "result": "56 µM (inactive)"}, {"measurement": "GI50", "setting": "[23]", "result": "86.1 µM (inactive)"}, {"measurement": "GI50", "setting": "[24]", "result": "71.3 µM (inactive)"}, {"measurement": "GI50", "setting": "[43]", "result": "48.6 µM (inactive)"}, {"measurement": "GI50", "setting": "[44]", "result": "70.5 µM (inactive)"}, {"measurement": "GI50", "setting": "[4]", "result": "40.8 µM (inactive)"}, {"measurement": "GI50", "setting": "[45]", "result": "50.4 µM (inactive)"}, {"measurement": "GI50", "setting": "[25]", "result": "> 100 µM (inactive)"}, {"measurement": "GI50", "setting": "[26]", "result": "31.6 µM (inactive)"}, {"measurement": "GI50", "setting": "[46]", "result": 31.8, "unit": "µM"}, {"measurement": "GI50", "setting": "[47]", "result": "82.6 µM (inactive)"}, {"measurement": "GI50", "setting": "[48]", "result": "48.8 µM (inactive)"}, {"measurement": "GI50", "setting": "[27]", "result": "> 100 µM (inactive)"}, {"measurement": "GI50", "setting": "[49]", "result": "49.5 µM (inactive)"}, {"measurement": "GI50", "setting": "[50]", "result": "> 100 µM (inactive)"}, {"measurement": "GI50", "setting": "[28]", "result": "36.1 µM (inactive)"}, {"measurement": "GI50", "setting": "[29]", "result": "40.1 µM (inactive)"}, {"measurement": "GI50", "setting": "[30]", "result": "30.7 µM (inactive)"}, {"measurement": "GI50", "setting": "[51]", "result": "> 100 µM (inactive)"}, {"measurement": "GI50", "setting": "[31]", "result": "24.3 µM (inactive)"}, {"measurement": "GI50", "setting": "[52]", "result": "48.4 µM (inactive)"}, {"measurement": "GI50", "setting": "[53]", "result": "59.3 µM (inactive)"}, {"measurement": "GI50", "setting": "[54]", "result": "39.6 µM (inactive)"}, {"measurement": "GI50", "setting": "[33]", "result": "75.3 µM (inactive)"}]}]}
